Experimental data from the supplement of paper PMC11451515.

Test system: NOMO1
Experiment: cell viability relative to DMSO control; higher = less cytotoxic
Conditions: 48 h
Method in brief: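 Library compounds in DMSO were pin-dosed into 1536-well plates (5 μl) holding NOMO1 or SEM (500 cells/well) or P12-Ichikawa (1000 cells/well) leukemia cells, across an 11-point threefold series of 47 μM to 0.79 nM. Each cell line had been adapted for at least four passages in each medium. CellTiter-Glo One luminescence was read after 48 h at 37°C. Viability is the per-plate percentage relative to DMSO wells, with cell-free wells as background.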

[1] = HPLM + 10% dialyzed FBS, 0.000781 µM
[2] = HPLM + 10% dialyzed FBS, 0.00234 µM
[3] = HPLM + 10% dialyzed FBS, 0.00702 µM
[4] = HPLM + 10% dialyzed FBS, 0.0211 µM
[5] = HPLM + 10% dialyzed FBS, 0.0632 µM
[6] = HPLM + 10% dialyzed FBS, 0.19 µM
[7] = HPLM + 10% dialyzed FBS, 0.569 µM
[8] = HPLM + 10% dialyzed FBS, 1.71 µM
[9] = HPLM + 10% dialyzed FBS, 5.12 µM
[10] = HPLM + 10% dialyzed FBS, 15.4 µM
[11] = HPLM + 10% dialyzed FBS, 46.1 µM
[12] = RPMI 5 mM glucose + 10% FBS, 0.000781 µM
[13] = RPMI 5 mM glucose + 10% FBS, 0.00234 µM
[14] = RPMI 5 mM glucose + 10% FBS, 0.00702 µM
[15] = RPMI 5 mM glucose + 10% FBS, 0.0211 µM
[16] = RPMI 5 mM glucose + 10% FBS, 0.0632 µM
[17] = RPMI 5 mM glucose + 10% FBS, 0.19 µM
[18] = RPMI 5 mM glucose + 10% FBS, 0.569 µM
[19] = RPMI 5 mM glucose + 10% FBS, 1.71 µM
[20] = RPMI 5 mM glucose + 10% FBS, 5.12 µM
[21] = RPMI 5 mM glucose + 10% FBS, 15.4 µM
[22] = RPMI 5 mM glucose + 10% FBS, 46.1 µM
[23] = RPMI 5 mM glucose + 10% dialyzed FBS, 0.000781 µM
[24] = RPMI 5 mM glucose + 10% dialyzed FBS, 0.00234 µM
[25] = RPMI 5 mM glucose + 10% dialyzed FBS, 0.00702 µM
[26] = RPMI 5 mM glucose + 10% dialyzed FBS, 0.0211 µM
[27] = RPMI 5 mM glucose + 10% dialyzed FBS, 0.0632 µM
[28] = RPMI 5 mM glucose + 10% dialyzed FBS, 0.19 µM
[29] = RPMI 5 mM glucose + 10% dialyzed FBS, 0.569 µM
[30] = RPMI 5 mM glucose + 10% dialyzed FBS, 1.71 µM
[31] = RPMI 5 mM glucose + 10% dialyzed FBS, 5.12 µM
[32] = RPMI 5 mM glucose + 10% dialyzed FBS, 15.4 µM
[33] = RPMI 5 mM glucose + 10% dialyzed FBS, 46.1 µM

SMILES	cell viability [1] [%]	cell viability [2] [%]	cell viability [3] [%]	cell viability [4] [%]	cell viability [5] [%]	cell viability [6] [%]	cell viability [7] [%]	cell viability [8] [%]	cell viability [9] [%]	cell viability [10] [%]	cell viability [11] [%]	cell viability [12] [%]	cell viability [13] [%]	cell viability [14] [%]	cell viability [15] [%]	cell viability [16] [%]	cell viability [17] [%]	cell viability [18] [%]	cell viability [19] [%]	cell viability [20] [%]	cell viability [21] [%]	cell viability [22] [%]	cell viability [23] [%]	cell viability [24] [%]	cell viability [25] [%]	cell viability [26] [%]	cell viability [27] [%]	cell viability [28] [%]	cell viability [29] [%]	cell viability [30] [%]	cell viability [31] [%]	cell viability [32] [%]	cell viability [33] [%]
CC(C)C[C@H](NC(=O)[C@H](Cc1ccccc1)NC(=O)c1cnccn1)B(O)O	99.7	106	108	119	21.6	3.62	4.25	2.64	2.22	1.08	0.274	83.7	91.4	99	96.6	21.6	6.12	2.91	1.66	1.61	1.02	-0.312	94.5	101	98.4	116	17	5	3.79	3	1.75	1.72	-0.0281
Cc1ccc(-c2ncn(-c3ccc(Nc4nccc(-c5cccc(N6CCOCC6)c5)n4)cc3)n2)cn1	94.8	90.9	96.8	109	105	87.8	13.6	10.2	7.32	8.09	5.6	88.4	40	80.9	94.6	86.4	87.4	16.4	8.16	7.21	5.58	6.57	87.7	94.2	88.9	97.8	94.9	89.2	20.3	8.8	8.22	7.85	5.33
O=c1[nH]cnc2c1ncn2[C@H]1CC[C@@H](CO)O1	91.5	91.9	118	97.9	93.2	88.8	98.6	100	107	71.9	55	78.5	88.5	93.2	94.7	87.7	87.7	101	90.4	94.4	85.5	48.4	75.4	92.5	97.8	94.5	95.1	83.5	92.8	97.3	103	89	57.1
C=CCn1c(=O)c2cnc(Nc3ccc(N4CCN(C)CC4)cc3)nc2n1-c1cccc(C(C)(C)O)n1	125	116	123	122	125	96.2	52.1	31.8	24.3	28.1	29.2	118	117	138	128	140	132	122	36.9	18.5	17.9	18.6											
C[C@@H]1CC[C@@]2(OC1)OC1CC3C4CC=C5CC(O)CCC5(C)C4CCC3(C)C1[C@@H]2C (stereo partly drawn)	95.6	84.6	105	114	113	112	116	127	117	44.5	16.5	89.7	87.3	95	95.3	96	90.6	93	98.5	90.1	48.5	11.8	90.6	83.5	97	87.6	87.4	93.1	91.9	90.8	88.3	73.4	29.1
CC1(C)CC(O)CC(C)(C)N1[O]	100	125	109	115	115	114	125	121	124	129	120	105	122	128	116	128	128	123	118	135	128	127	100	123	121	123	119	119	123	125	120	123	129
CCCCCCCCc1ccc(CCC(N)(CO)CO)cc1	124	124	123	122	112	102	79.1	91	60.6	48.9	2.93	99.2	104	102	100	105	102	104	93.4	90.3	64.2	2.61	113	105	103	113	105	95.6	98.2	81	70.5	65.2	2.38
N#CC(=C(/N)Sc1ccccc1N)/C(C#N)=C(\N)Sc1ccccc1N	118	119	122	128	134	140	130	101	107	90.8	71	115	115	121	120	120	121	118	117	114	120	97.8											
Cc1cn(CCN2CCN(c3ccccc3-c3cc(C#N)cc(C(=O)NCCCN4CCCC4)c3)CC2)c2ccccc12	103	111	111	121	148	130	127	134	85.3	35.3	10.7	102	110	115	109	125	119	119	112	108	38.4	22.7	119	102	109	119	120	110	124	112	96.4	44.5	25.5
Oc1cc(O)cc(/C=C/c2ccc(O)c(O)c2)c1	97.9	101	99.3	99.4	110	104	97.4	101	100	56	45.4	89.7	90.5	94	85.6	91.9	85.7	97.1	88.4	86.9	72.3	70.8	81.6	99.6	92.3	88.8	103	98.4	94.9	93.5	79.3	84.8	72.8
COc1cc(-c2nn(C3CCC(N4CCN(C(C)=O)CC4)CC3)c3ncnc(N)c23)ccc1NC(=O)c1cc2ccccc2n1C (stereo not drawn)												104	117	101	109	107	111	106	113	112	89.2	26.8	106	110	120	119	129	115	113	112	106	109	31.3
Cc1cc(O)c2c(c1)C(=O)c1cc(O)cc(O)c1C2=O	105	102	117	104	99.3	118	98.8	121	96.2	98.4	87.7	85.8	104	107	88.1	92.1	88	97.2	85.3	90.4	85.9	82.5	90.5	99	109	96.9	110	94.6	92.1	92	95.7	90.3	87.4
C[N+](C)([O-])CCNc1ccc(NCC[N+](C)(C)[O-])c2c1C(=O)c1c(O)ccc(O)c1C2=O	84.5	94.9	96.7	103	108	97.2	80.6	70.2	51.2	48	38.3	84.4	86.9	84.1	97.2	89.4	94.5	91.4	90.4	33	55.8	19.8	90.3	93.6	92.6	92.7	102	99.6	90.5	77	59.7	48.5	44
COC1(C[S+]([O-])c2ccccc2)CCN(CCc2c[nH]c3ccc(F)cc23)CC1 (stereo not drawn)												107	113	106	106	117	117	116	112	113	103	96.2	111	99.8	115	102	112	111	110	99.8	98.3	103	90.3
CC(C)c1ccccc1Cc1cc(C(=O)Nc2ccc([S+](=O)([O-])c3ccccc3C(C)(C)C)cc2)c(O)c(O)c1O												102	116	101	102	114	117	102	109	105	97.4	87.7	103	117	111	115	108	118	104	118	96.8	97	104
CC(C)NCC(O)c1ccc(NS(C)(=O)=O)cc1 (stereo not drawn)	110	114	110	120	126	119	101	113	109	102	111	90.5	91.9	104	86.2	90.7	98.6	89.4	89	94.1	104	94.2	87.9	103	110	102	105	124	102	94.1	102	98.1	117
